What all share (type): in vivo, horse
One assay relates to tendon/ligament injuries. Description: Single armed pilot trial in equine connective tissue injuries, lesion size by ultrasonography (Example 7). As to the method:
The time since injury of each horse was noted. […] Side effects and tolerability were also recorded.
14 horses with 15 injured limbs were enrolled in the study between March and May 2021. The injuries comprised 9 tendon and 6 ligament injuries, with 12 injuries on the left side of the horse and 3 on the right. The mean time since injury was ˜ 12 months. The tendon injuries comprised 2 acute injuries (<1 month old) and 7 chronic injuries, with a mean time since injury of 13.1 months, and a range of 9-20 months. The ligamentous injuries comprised 6 chronic injuries, with a mean time since injury of 14.3 months and a range of 4-30 months.
All statistical analysis was performed on SPSS v27. Missing values were handled by last observation carried forward. Descriptive statistics were used to describe baseline and follow-up values. The results were first tested for normality using the Shapiro-Wilk test. The results at weeks 3, 5 and 7 were then analysed compared to baseline using two-tailed paired Student's t-tests once normality was proven. One-tailed Pearson correlation test was performed to determine if outcomes was correlated with time since injury as we hypothesise that older, more established injuries may benefit less from our supplementation.

The next assay relates to tendon/ligament lesions. Description: Equine tendon/ligament lesions from original injury through treatment (Example 8). As to conditions: oral 160,000 IU once per day. As to the method: Side effects and tolerability were also recorded. The administration of vitamin A supplement, and the vitamin A supplement used, were the same as that of Example 7. 7 horses with 7 injured limbs were enrolled in the study between March and May 2021. The injuries comprised 3 tendon and 4 ligament injuries. The inclusion criteria were polo horses with diagnosed tendon/ligament injuries regardless of time since injury. The exclusion criteria were horses with acute connective tissue injuries. All statistical analysis was performed on SPSS v27. Missing values were handled by last observation carried forward. Descriptive statistics were used to describe baseline and follow-up values. The results were first tested for normality using the Shapiro-Wilk test. The results at weeks 3, 5 and 7 were then analysed compared to baseline using two-tailed paired Student's t-tests once normality was proven.

Another assay has as its system Tendon injury. Description: Echogenicity ratio of tendon lesion or injured tendon to adjacent healthy tendon (Example 9). The source says: Structures composed of different tissue will have different echogenicities. The health of a tissue such as a tendon can be assessed by comparing the echogenicity of the tissue with that of a corresponding healthy tissue. Healthy tendons comprising native tissue and normal architecture are usually hyperechoic and appear white on the sonogram; they are capable of reflecting ultrasound that is cast over the tissue. An injured tendon comprising a lesion will appear as less hyperechoic, and more hypoechoic as tendon fibers are interrupted and defects are usually filled with fluid, blood, or fat. Severe lesions will be anechoic, and will display as completely dark on the sonogram. […] The echogenicity of a tendon lesion was assessed by comparing grey scale statistics of the tendon lesion with the values of healthy adjacent tendon tissue (FIG. 18(b)). Due to equine anatomy, there is always a directly adjacent healthy tendon to use as a control (ultrasonography is […] by depth of tissue). The statistics comprised determining the mean pixel intensity at a number of random points on the lesion and the healthy tendon, and calculating a mean value for the echogenicity of each tissue. A ratio of mean echnogenicity of the lesion and the healthy tissue was determined to assess the extent of damage/healing at the lesion. Vitamin A supplement used, its administration, and the subjects investigated, comprise those of Example 7.

For assay [1], the system named is connective tissue injuries (tendon/ligament lesions). Description: Post-treatment maintenance dose, double-blind randomised placebo-controlled trial (Example 10). The source says:
Maintenance dose of vitamin A palmitate (retinyl palmitate) in a vehicle, delivered in dry feed at 8,000 IU per kg feed dry matter.
The methodology and subjects of the investigation comprise those of Example 7.
The trial was a double-blind randomised controlled trial.

In another assay the test system is injured tendon/ligament. Description: Effect of activity level on connective tissue improvement (Example 11). The following applies: week 7, full-treatment doses. As to the method:
The vitamin A supplement used, its administration, and the subjects of the investigation comprise those of Example 7. Improvement (as a % of baseline) of the injured tendon/ligament was performed at 7 weeks into the trial. All 14 horses were administered full-treatment doses of vitamin A supplement from week 0 to week 7 whilst being put to work. 7 horses were put on light/no work and 7 on full work. The allocation of each horse into one of the two groups was determined by the respective owner of the horse, who decided based on whether they could afford for the horse to be put on light work (and thus investigate the isolated effect of vitamin A supplement on lesion progression) or whether the horse was required to be put back to full work.

Each structure is given as a SMILES string.

As to `CCCCCCCCCCCCCCCC(=O)OC/C=C(C)/C=C/C=C(C)/C=C/C1=C(C)CCCC1(C)C` [vitamin A supplement, Vitamin A palmitate], the Mean lesion size in the assay on tendon/ligament injuries (baseline, 15 injuries) is 41.44%; with tendon/ligament injuries (week 3, oral 160,000 IU once per day, p=0.169 vs baseline) it was 35.87%; in the assay with tendon/ligament injuries (week 5, oral 160,000 IU once per day, p<0.001 vs baseline), 28.37%; with tendon/ligament injuries (week 7, oral 160,000 IU once per day, p=0.006 vs baseline), 31.73%. Moreover, the “Percentage improvement, baseline to week 7” value with tendon/ligament injuries (outlier at 20 months since injury, complete avulsion of the ligament) is −25%; in the assay on tendon/ligament injuries (two outlier subjects at 12 months since injury), 100%. The “Change in ligament lesion size, baseline to week 7” value in the assay with tendon/ligament lesions (ligaments, outlier excluded (n=3)) was “reduction in the size of two of the three lesions”. Moreover, the “Mean improvement in lesion size, baseline to week 7” value with tendon/ligament lesions (tendons n=3, chronic injuries, p=0.04) was 30.62%. Moreover, the “% increase of mean echogenicity ratio (lesion/healthy tendon)” value in the assay on Tendon injury (baseline to week 7) worked out at 32.7%. In addition, the “Mean echogenicity ratio of tendon lesion to adjacent healthy tendon” value in the assay on Tendon injury (baseline, 1 = perfect regeneration of native tendon) was 0.52; with Tendon injury (week 7, oral 160,000 IU once per day, 1 = perfect regeneration) it was 0.69. Besides, the “Mean echogenicity ratio of injured tendon (area of lesion excluded) to adjacent healthy tendon” value was found to be 0.76 in the assay with Tendon injury (week 0) and 0.82 in the assay on Tendon injury (week 7, oral 160,000 IU once per day). The “Change in lesion size from week 7 to week 14, intragroup” value in assay [1] (maintenance dose 80,000 IU/day, compared with placebo group) is on record as −24.5%. Besides, in assay [1] (week 14, after 7 weeks of 80,000 IU/day following 7 weeks of full dose, 31.73% at week 7), the “Mean lesion size of the maintenance dose group” value was approximately 20.00%. The “Lesion health on ultrasonogram in one re-injured subject” value in assay [1] (week 14, after 7 weeks of maintenance dose, FIG. 21) is “the health of this particular lesion deteriorated”. In addition, the Improvement from baseline in the assay with injured tendon/ligament (horses on full work (n=7)) was 45.05%; with injured tendon/ligament (horses on light or no work (n=7)), 30.35%.

The values are drawn from patent publication US20240293464A1, “TISSUE REPAIR” (priority 2021, published 2024).
